From ChEMBL document CHEMBL4725243, “High-Throughput Screening for the Discovery of Enzyme Inhibitors” (J Med Chem, 2020)

Molecular target: Immunoglobulin A1 protease autotransporter (Haemophilus influenzae (strain ATCC 51907 / DSM 11121 / KW20 / Rd), UniProt P44969)
Assay: Inhibition of Haemophilus influenzae Rd IGA1 protease expressed in Escherichia coli BL21(DE3) preincubated for 1 hr followed by substrate addition and measured after 2 hrs by sandwich ELISA

Immunoglobulin A1 protease autotransporter, sequence (P44969 26-1014 limits assumed): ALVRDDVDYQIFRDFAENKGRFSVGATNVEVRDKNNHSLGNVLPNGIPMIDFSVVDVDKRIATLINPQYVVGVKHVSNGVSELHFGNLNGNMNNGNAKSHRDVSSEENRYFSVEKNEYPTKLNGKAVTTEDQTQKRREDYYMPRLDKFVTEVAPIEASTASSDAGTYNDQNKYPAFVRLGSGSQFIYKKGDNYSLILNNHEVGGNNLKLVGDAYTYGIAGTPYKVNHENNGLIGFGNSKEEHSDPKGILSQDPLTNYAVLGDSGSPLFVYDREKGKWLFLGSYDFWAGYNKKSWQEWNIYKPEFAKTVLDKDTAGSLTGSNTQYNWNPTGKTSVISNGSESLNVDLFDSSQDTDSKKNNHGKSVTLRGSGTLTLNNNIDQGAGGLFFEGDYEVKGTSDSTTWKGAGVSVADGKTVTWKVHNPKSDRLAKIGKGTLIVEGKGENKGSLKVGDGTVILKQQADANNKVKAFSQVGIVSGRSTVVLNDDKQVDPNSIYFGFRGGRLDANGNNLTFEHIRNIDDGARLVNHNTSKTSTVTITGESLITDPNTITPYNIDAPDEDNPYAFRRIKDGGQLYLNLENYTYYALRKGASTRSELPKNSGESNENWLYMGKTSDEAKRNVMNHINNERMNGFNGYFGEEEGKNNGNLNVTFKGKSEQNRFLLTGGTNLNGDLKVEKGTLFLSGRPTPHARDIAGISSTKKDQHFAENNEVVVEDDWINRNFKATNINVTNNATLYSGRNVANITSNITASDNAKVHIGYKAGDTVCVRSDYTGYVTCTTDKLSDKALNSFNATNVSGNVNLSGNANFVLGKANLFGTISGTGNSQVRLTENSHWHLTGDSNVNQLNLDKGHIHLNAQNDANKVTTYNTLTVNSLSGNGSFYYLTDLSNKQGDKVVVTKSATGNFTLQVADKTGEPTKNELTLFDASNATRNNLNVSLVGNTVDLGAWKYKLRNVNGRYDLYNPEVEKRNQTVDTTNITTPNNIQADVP

| IC50 [µM] | Structure (SMILES) |
| --- | --- |
| 3.7 | O=C(Oc1nsnc1N1CCCCC1)C1CCOCC1 |
| 5.9 | O=C(Oc1nsnc1N1CCOCC1)c1ccccc1 |
